Measurements reported in patent US20230092895A1, “TANDEM CD19 CAR-BASED COMPOSITIONS AND METHODS FOR IMMUNOTHERAPY” (Obsidian Therapeutics, Inc., priority 2019, published 2023).
Read-outs that look alike come from different tables or passages of the source.

Legend:
[1] = system: GFP positive (IL12 negative) T cells; assay: In vivo T cell phenotype: GFP positive cells co-transferred with CD19 CAR-IL12 cells, FACS markers, plasma IL12; set-up: species or system NSG mice
Description: IL12-transduced T cells have a Th1-skewed phenotype in vitro, i.e. produce IFN gamma). To assess phenotypic effects of IL12 in vivo, GFP positive (IL12 negative) cells were generated and co-transferred with CD19 CAR-IL12 transduced cells or CD19 alone or IL12 alone cells. Nalm 6 tumor bearing NSG mice were injected with 8 million GFP positive cells, in addition to CD19 CAR-IL12 cells or their corresponding monocistronic constructs. The groups utilized in this study included, 1e^6 empty vector expressing T cells plus 8e^6 GFP positive cells, 1e^6 OT-001407 plus 8e^6 GFP positive cells, 0.1 e^6 OT-001356 plus 8e^6 GFP positive cells, 1e^6 OT-001356 plus 8e^6 GFP positive cells, 0.1e^6 OT-001357 plus 8e^6 GFP positive cells, 1e^6 OT-001357 plus 8e^6 GFP positive cells, and 1e^6 OT-001442 plus 8e^6 GFP positive cells.
Animals were bled on day 3, day 5, day 7 and euthanized at day 12. Blood, spleen, and bone marrow were collected for analysis of T cell number and CD8 frequency. Phenotypic T cell markers such as Granzyme, Tbet, pSTAT4, CD25, and ICOS were analyzed in the GFP positive cells using FACS. […] By day 12, post transfer, the levels of Granzyme B, Tbet, pSTAT4, CD25 and ICOS levels increased in the blood of the mice injected with the CD19 CAR-IL12 tandem constructs. ANOVA test for significance was p<0.0001 for all markers. […]

HCT-116 cells = conditions: 24 hours; for IL15Ra mean fluorescent intensity (MFI): HCT-116 cells stably expressing OT-001111
Description: HCT-116 cells stably expressing the OT-001111 (OT-IL15-009) cassette were incubated with 0 to 250 μM TMP ligand (or DMSO) for 24 hours. Membrane bound IL15-IL15Ra levels were assessed using flow cytometry detection of IL15Ra.

[2] = human, cited from earlier work

Compound	EC 50 of IL12 in plasma ([1]; mouse, in vivo) [pg/mL]	level of IL12 sufficient to induce phenotypic changes ([1]; plasma, markers and IFN gamma) [pg/mL]	TMP concentration resulting in IL15Ra MFI levels above DMSO controls (HCT-116 cells; HCT-116 stably expressing OT-001111) [µM]	IL15Ra mean fluorescent intensity (MFI) (HCT-116 cells; TMP 0.00064 μM)	IL15Ra mean fluorescent intensity (MFI) (HCT-116 cells; TMP 0.0032 μM)	IL15Ra mean fluorescent intensity (MFI) (HCT-116 cells; TMP 0.016 μM)	IL15Ra mean fluorescent intensity (MFI) (HCT-116 cells; TMP 0.08 μM)	IL15Ra mean fluorescent intensity (MFI) (HCT-116 cells; TMP 0.4 μM)	IL15Ra mean fluorescent intensity (MFI) (HCT-116 cells; TMP 2 μM)	IL15Ra mean fluorescent intensity (MFI) (HCT-116 cells; TMP 10 μM)	IL15Ra mean fluorescent intensity (MFI) (HCT-116 cells; TMP 50 μM)	IL15Ra mean fluorescent intensity (MFI) (HCT-116 cells; TMP 250 μM)	TMP maximum peak levels ([2]; 150 mg/m2 IV every 8 hours) [µM]	TMP steady state levels ([2]; 80-160 mg BID PO) [µM]
IL12: heterodimeric protein of two subunits (p35, p40); cytokine	~100	200												
COc1cc(Cc2cnc(N)nc2N)cc(OC)c1OC [TMP, Trimethoprim]			0.0032	304	469	666	769	1001	1104	1204	1344	1576	17 to 34	1 to 6
